Results as given in patent US20160102336A1, “FLUORESCENT PROBE FOR DETECTING ACTIVITY OF CALPAIN” (THE UNIVERSITY OF TOKYO, priority 2013, published 2016).
*1 amine or outer side, *2 acyl side, *3 side chain or, on linkers, in order; H or OH if unused. Where a SMILES comes first, the peptide text is derived from it. The star is where a group is joined. X1 = Cc1ccccc1C1=C2C=CC(=N)C=C2[Si](C)(C)c2cc(N*)ccc21; Suc = O=C(CCC(=O)[*:2])[*:1]

Key:
[1] = Measurement of the optical characteristics; format: physicochemical; settings: for Absmax / Emmax / Φn / ε: 0.1 sodium phosphate buffer with pH 3 containing 1% DMSO
Method: The optical characteristics of Suc-LLVY-SiR600 and Boc-LM-SiR600 were measured in a 0.1 sodium phosphate buffer with pH 3 containing 1% DMSO.

calpain-1 = molecular target: T1, calpain-1 (Homo sapiens, UniProt P07384); experiment: Evaluation as a calpain fluorescent probe (fluorescence spectrum after addition of calpain-1); format: biochemical
T1 sequence (P07384 1-714): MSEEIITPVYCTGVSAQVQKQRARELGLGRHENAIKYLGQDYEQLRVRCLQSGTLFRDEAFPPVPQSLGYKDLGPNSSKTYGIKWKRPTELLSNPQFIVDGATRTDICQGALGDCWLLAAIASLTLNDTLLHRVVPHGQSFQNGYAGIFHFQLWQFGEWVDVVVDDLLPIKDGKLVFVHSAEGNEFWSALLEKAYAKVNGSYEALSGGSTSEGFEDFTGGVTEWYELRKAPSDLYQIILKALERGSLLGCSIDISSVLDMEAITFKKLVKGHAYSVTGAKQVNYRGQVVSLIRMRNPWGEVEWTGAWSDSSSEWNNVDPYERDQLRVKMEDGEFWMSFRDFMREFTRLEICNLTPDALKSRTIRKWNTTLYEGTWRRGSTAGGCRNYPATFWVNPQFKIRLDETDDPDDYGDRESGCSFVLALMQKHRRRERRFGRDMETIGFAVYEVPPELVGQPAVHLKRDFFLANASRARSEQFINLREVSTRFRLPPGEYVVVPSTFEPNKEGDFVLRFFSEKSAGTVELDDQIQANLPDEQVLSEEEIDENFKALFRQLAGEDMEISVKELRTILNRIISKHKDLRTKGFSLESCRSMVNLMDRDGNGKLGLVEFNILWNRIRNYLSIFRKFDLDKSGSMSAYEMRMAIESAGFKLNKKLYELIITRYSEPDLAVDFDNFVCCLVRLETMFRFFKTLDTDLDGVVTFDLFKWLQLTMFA
T1 sequence (P04632 1-268 partner): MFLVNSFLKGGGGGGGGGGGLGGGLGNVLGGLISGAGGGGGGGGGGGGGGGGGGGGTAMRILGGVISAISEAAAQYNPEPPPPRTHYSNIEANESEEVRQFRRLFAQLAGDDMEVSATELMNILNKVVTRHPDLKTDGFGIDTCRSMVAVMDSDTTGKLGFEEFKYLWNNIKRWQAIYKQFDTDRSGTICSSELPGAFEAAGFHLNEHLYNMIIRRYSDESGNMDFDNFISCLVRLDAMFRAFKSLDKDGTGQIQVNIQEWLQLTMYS
Method: FIGS. 1(c) to 1(e) show the fluorescence spectrum 10 to 60 minutes later from addition of 5 μg calpain-1 to the Suc-LLVY-SiR600 solution (2 μM).
In FIGS. 1(b) to 1(e), the reaction was carried out in a 0.75-mL of 20-mM HEPES buffer solution (pH 7.4) containing 100-μM DTT, 10% glycerol, 0.1% CHAPS, 100-mM NaCl, 1-mM EDTA, and 1.5-mM CaCl2, and containing 1% DMSO as a cosolvent.
In FIG. 1(d), the reaction was carried out in the absence of 1.5-mM CaCl2, and in FIG. 1(e), the reaction was carried out in the presence of 1-μM calpeptin.
The reaction temperature was 25° C. in FIGS. 1(b), 1(d), and 1(e), and 37° C. in FIG. 1(c).
In FIGS. 2(b) and 2(c), the reaction was carried out in a 0.75-mL of 20-mM HEPES buffer solution (pH 7.4) containing 100-μM DTT, 10% glycerol, 0.1% CHAPS, 100-mM NaCl, 1-mM EDTA, and 1.5-mM CaCl2, and containing 1% DMSO as a cosolvent. In FIG. 2(c), the reaction was carried out in the presence of 1-μM calpeptin, and in FIG. 2(b), the reaction was carried out in the absence of calpeptin.
The reaction temperature was 25° C. in FIGS. 2(b) and 2(c), and the excitation wavelength was 593 nm.

[2] = system: Calpain activity in HeLa cells; experiment: Imaging of calpain activity in HeLa cells (confocal microscope); format: cell-based
Method: (§1) Hela cells were incubated for 10 minutes at 37° C. using (a) Hank's balanced salt solution (HBSS) containing DMSO as a control, and (b) HBSS containing 20-11M calpeptin, and further incubation for 20 minutes was carried out in 2-μM Suc-LLVY-SiR600. A fluorescence image and a differential interference image were then taken using a confocal microscope. The scale bar in the drawings is 20 μm.
(§2) Statistical analysis was carried out using Student's t-test (n=18).

[3] = system: Calpain activity in A549 cells; experiment: Imaging of calpain activity in A549 cells (confocal microscope); format: cell-based; settings: 2-μM Suc-LLVY-SiR600, 20 minutes, HBSS, 37° C.
Method: as §1, with “A549” for “Hela”, “20-μM” for “20-11M”
as §2

Compound	Absmax [1]	Emmax [1]	Φn [1]	ε [1]	absorption of light near maximum absorption (593 nm) of 2MeSiR600 ([1]; near 593 nm)	increase in fluorescence in a solution that does not contain Ca^2+ (calpain-1; probe 2 μM, 5 μg calpain-1, 10 to 60 minutes, absence of 1.5-mM CaCl2, 25° C.)	fluorescence after the reaction with calpain-1 (calpain-1; probe 2 μM, 5 μg calpain-1, 180 minutes, HEPES buffer pH 7.4 with 1.5-mM CaCl2, 25° C., excitation 593 nm)	fluorescence before the reaction with calpain-1 (calpain-1; probe 2 μM, excitation 593 nm, before addition of calpain-1, 25° C.)	visualization of calpain activity in HeLa cells ([2]; 2-μM Suc-LLVY-SiR600, 20 minutes, HBSS, 37° C.)	visualization of calpain activity in A549 cells [3]	increase in fluorescence of Boc-LM-SiR600 with calpain-1 when calpeptin was added (calpain-1; 1-μM calpeptin, Boc-LM-SiR600 2 μM, 5 μg calpain-1, 25° C.)	increase in fluorescence of Suc-LLVY-SiR600 with calpain-1 when calpeptin is added (calpain-1; 1-μM calpeptin, Suc-LLVY-SiR600 2 μM, 5 μg calpain-1, 25° C.)	fluorescence intensity in HeLa cells on addition of calpeptin ([2]; 20-11M calpeptin 10 minutes at 37° C., then 2-μM Suc-LLVY-SiR600 20 minutes)
2Me SiR600 [reference compound]	593 nm	613 nm	0.38	91,000 M^−1cm^−1									
Cc1ccccc1C1=C2C=CC(=N)C=C2[Si](C)(C)c2cc(NC(=O)[C@H](Cc3ccc(O)cc3)NC(=O)[C@@H](NC(=O)[C@H](CC(C)C)NC(=O)[C@H](CC(C)C)NC(=O)CCC(=O)O)C(C)C)ccc21 [Suc-LLVY-SiR600] (Suc-LLVY-X1)	497 nm	590 nm	0.03	25,000 M^−1cm^−1	did not absorb light	an increase in fluorescence does not occur	high-intensity fluorescence was observed	fluorescence was mostly unobserved	calpain activity in HeLa cells can be monitored	calpain activity in cells was successfully visualized			
CCCC[C@@H](C=O)NC(=O)[C@H](CC(C)C)NC(=O)OCc1ccccc1 [calpeptin, reference compound]											an increase in fluorescence did not occur	an increase in fluorescence does not occur	fluorescence intensity in the cells was reduced
